Assay results from US20250064941A1, “SIGLEC LIGANDS, CONJUGATES, AND METHODS OF USE THEREOF” (Osprey Biopharmaceuticals, Inc., priority 2023, published 2025).

Columns and labels:
[1] = molecular target: T1, mouse Siglec-2-Fc-Avi (CD22) (Mus musculus, UniProt P35329); test: SPR binding affinity to mouse CD22; conditions: steady-state analysis
T1 construct: made in house
T1 sequence (P35329 22-708 limits assumed): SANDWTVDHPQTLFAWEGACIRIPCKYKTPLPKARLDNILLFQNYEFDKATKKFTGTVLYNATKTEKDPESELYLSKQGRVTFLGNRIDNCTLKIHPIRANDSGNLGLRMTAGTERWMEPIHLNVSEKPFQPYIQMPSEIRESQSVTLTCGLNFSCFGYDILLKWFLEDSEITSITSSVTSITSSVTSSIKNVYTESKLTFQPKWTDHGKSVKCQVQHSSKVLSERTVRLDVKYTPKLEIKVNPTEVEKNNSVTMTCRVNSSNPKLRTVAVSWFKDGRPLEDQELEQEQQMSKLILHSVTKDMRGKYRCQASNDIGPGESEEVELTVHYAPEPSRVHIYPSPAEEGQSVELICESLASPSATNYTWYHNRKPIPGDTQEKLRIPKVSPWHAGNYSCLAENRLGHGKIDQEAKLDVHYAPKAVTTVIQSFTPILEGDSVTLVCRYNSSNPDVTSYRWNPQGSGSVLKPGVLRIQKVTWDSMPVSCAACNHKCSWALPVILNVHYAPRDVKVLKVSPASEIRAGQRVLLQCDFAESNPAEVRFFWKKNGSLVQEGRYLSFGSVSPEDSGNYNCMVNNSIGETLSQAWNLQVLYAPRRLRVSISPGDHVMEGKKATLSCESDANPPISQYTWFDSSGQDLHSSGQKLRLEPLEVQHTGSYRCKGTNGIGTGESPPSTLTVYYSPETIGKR
Outline: (§1)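 Steady-state fits gave the affinities. Before capture on a streptavidin surface, biotinylated CD22 had native sialic acids stripped (SialoExo, 4 hours, 37° C.). Running buffer: 10 mM HEPES pH 7.5, 150 mM NaCl, 0.05% Tween-20, 1% DMSO, with DMSO solvent correction.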

[2] = molecular target: T2, human Siglec-2/CD22 protein (Homo sapiens, UniProt P20273); test: SPR binding affinity to human CD22; conditions: steady-state analysis
T2 construct: purchased Acro Biosystems SI2-H82E3
T2 sequence (P20273 20-847): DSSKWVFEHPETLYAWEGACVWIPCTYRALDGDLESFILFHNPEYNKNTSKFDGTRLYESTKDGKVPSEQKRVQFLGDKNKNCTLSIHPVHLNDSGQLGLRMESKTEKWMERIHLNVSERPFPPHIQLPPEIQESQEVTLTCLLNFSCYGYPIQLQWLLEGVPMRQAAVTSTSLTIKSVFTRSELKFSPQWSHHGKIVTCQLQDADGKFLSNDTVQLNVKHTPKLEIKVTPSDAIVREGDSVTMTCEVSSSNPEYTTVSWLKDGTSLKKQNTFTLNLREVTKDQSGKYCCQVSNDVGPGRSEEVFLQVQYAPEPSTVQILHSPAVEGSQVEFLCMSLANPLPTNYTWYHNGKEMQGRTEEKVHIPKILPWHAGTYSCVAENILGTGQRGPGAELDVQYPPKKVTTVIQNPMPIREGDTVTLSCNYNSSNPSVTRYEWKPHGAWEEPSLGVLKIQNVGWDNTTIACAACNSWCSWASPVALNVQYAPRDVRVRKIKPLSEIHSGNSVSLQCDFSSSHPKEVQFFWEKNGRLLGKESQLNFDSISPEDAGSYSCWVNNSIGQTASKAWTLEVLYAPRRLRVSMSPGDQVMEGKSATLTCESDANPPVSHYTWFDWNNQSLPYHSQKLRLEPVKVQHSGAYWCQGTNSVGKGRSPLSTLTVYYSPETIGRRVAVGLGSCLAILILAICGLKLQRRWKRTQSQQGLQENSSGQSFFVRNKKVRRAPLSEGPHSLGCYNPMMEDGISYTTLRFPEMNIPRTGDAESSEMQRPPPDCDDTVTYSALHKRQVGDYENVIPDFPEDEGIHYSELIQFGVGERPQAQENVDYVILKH
Outline: as §1

[3] = molecular target: cynomolgus Siglec-2/CD22 (Macaca fascicularis, UniProt A0A2K5WCZ6); test: biochemical; assay type: binding; conditions: SPR, steady-state analysis; read-out: Affinity cyno CD22
Procedure: Prior to immobilization, CD22 proteins were treated with SialoExo (Genovis, Cat #G1-SM1-020) for 4 hours at 37° C. to remove native sialic acid residues.
Surface preparation for cyno CD22 protein consisted of amine coupling to Cytiva CM5 chip (Cytiva, Cat #BR100530) using the Cytiva amine coupling kit Type 2 (Cytiva, Cat #BR100633). Following the standard amine coupling protocols, EDC and NHS from the kit were mixed 1:1 and injected over flow cells 1 and 2. […] Any active carboxy groups were then capped with 1M Ethanolamine, pH 8.5 for 420s on flow cells 1 and 2.
Binding experiments of Siglec-ligand conjugated proteins or Siglec ligand compounds were performed on the surfaces prepared above in 10 mM HEPES, 150 mM NaCl, 0.05% Tween-20, pH 7.5, 1% DMSO as the running buffer. […] The compounds were then allowed to dissociate from the surface for 120 seconds. […] Solvent correction was performed using 0.5, 1, 1.5, and 2% DMSO spike into running buffer without DMSO. […] Data was analyzed using steady-state analysis in Biacore Insight Evaluation Software, version 3.0 for Siglec ligand compounds.

Sequence of cynomolgus Siglec-2/CD22 (A0A2K5WCZ6 entry or part of it): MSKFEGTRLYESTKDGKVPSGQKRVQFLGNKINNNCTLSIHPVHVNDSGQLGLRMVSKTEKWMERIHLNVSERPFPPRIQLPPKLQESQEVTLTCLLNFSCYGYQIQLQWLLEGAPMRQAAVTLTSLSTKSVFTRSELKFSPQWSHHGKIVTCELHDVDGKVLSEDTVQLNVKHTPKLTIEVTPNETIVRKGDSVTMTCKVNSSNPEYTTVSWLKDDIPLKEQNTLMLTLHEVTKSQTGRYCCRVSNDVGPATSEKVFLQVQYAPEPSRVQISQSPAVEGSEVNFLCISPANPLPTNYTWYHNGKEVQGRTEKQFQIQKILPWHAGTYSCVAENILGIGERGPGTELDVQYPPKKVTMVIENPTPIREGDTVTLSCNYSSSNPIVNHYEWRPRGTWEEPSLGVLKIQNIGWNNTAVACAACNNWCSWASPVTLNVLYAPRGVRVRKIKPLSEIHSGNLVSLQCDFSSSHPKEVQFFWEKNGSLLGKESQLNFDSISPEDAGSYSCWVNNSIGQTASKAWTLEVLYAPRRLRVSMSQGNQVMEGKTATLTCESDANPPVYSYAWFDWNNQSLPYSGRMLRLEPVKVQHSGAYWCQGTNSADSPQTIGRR

## C#CCOCCOCCO[C@]1(C(=O)O)C[C@H](O)[C@@H](NC(=O)CO)[C@H]([C@H](O)[C@H](O)CNC(=O)CCCCCCCCCCCCCCC)O1 [Compound 13, (2R,4S,5R,6R)-6-((1R,2R)-1,2-dihydroxy-3-palmitamidopropyl)-4-hydroxy-5-(2-hydroxyacetamido)-2-(2-(2-(prop-2-yn-1-yloxy)ethoxy)ethoxy)tetrahydro-2H-pyran-2-carboxylic acid]
[1]
  Kd: > 10 µM
[2]
  Kd: > 10 µM
[3]
  Kd: > 10 µM

## C#CCOCCOCCO[C@]1(C(=O)O)C[C@H](O)[C@@H](NC(=O)CO)[C@H]([C@H](O)[C@H](O)CNC(=O)C[C@H]2CC[C@H](O)CC2)O1 [Compound 14, (2R,4S,5R,6R)-6-((1R,2R)-1,2-dihydroxy-3-(2-((1r,4R)-4-hydroxycyclohexyl)acetamido)propyl)-4-hydroxy-5-(2-hydroxyacetamido)-2-(2-(2-(prop-2-yn-1-yloxy)ethoxy)ethoxy)tetrahydro-2H-pyran-2-carboxylic acid]
[1]
  Kd: 1 to 10 µM
[2]
  Kd: > 10 µM
[3]
  Kd: > 10 µM

## C#CCOCCOCCO[C@]1(C(=O)O)C[C@H](O)[C@@H](NC(=O)CO)[C@H]([C@H](O)[C@H](O)CNC(=O)CC)O1 [Compound 15, (2R,4S,5R,6R)-6-((1R,2R)-1,2-dihydroxy-3-propionamidopropyl)-4-hydroxy-5-(2-hydroxyacetamido)-2-(2-(2-(prop-2-yn-1-yloxy)ethoxy)ethoxy)tetrahydro-2H-pyran-2-carboxylic acid]
[1]
  Kd: > 10 µM
[2]
  Kd: > 10 µM
[3]
  Kd: > 10 µM

## C#CCCOc1ccc(CO[C@]2(C(=O)O)C[C@H](O)[C@@H](NC(=O)CO)[C@H]([C@H](O)[C@H](O)CN)O2)cc1 [Compound 16, (2R,4S,5R,6R)-6-((1R,2R)-3-amino-1,2-dihydroxypropyl)-2-((4-(but-3-yn-1-yloxy)benzyl)oxy)-4-hydroxy-5-(2-hydroxyacetamido)tetrahydro-2H-pyran-2-carboxylic acid]
[1]
  Kd: > 10 µM
[2]
  Kd: > 10 µM
[3]
  Kd: > 10 µM

## C#CCOCCOCCO[C@]1(C(=O)O)C[C@H](O)[C@@H](NC(=O)CO)[C@H]([C@H](O)[C@H](O)CNC(=O)c2cccc(Oc3ccc(O)cc3)c2)O1 [Compound 18, (2R,4S,5R,6R)-6-((1R,2R)-1,2-dihydroxy-3-(3-(4-hydroxyphenoxy)benzamido)propyl)-4-hydroxy-5-(2-hydroxyacetamido)-2-(2-(2-(prop-2-yn-1-yloxy)ethoxy)ethoxy)tetrahydro-2H-pyran-2-carboxylic acid]
[1]
  Kd: 1 to 10 µM
[2]
  Kd: < 1 µM
[3]
  Kd: 1 to 10 µM

## C#CCOCCOCCO[C@]1(C(=O)O)C[C@H](O)[C@@H](NC(=O)CO)[C@H]([C@H](O)[C@H](O)CNC(=O)c2ccc(-c3ccc(O)cc3)cc2)O1 [Compound 19, (2R,4S,5R,6R)-6-((1R,2R)-1,2-dihydroxy-3-(4′-hydroxy-[1,1′-biphenyl]-4-carboxamido)propyl)-4-hydroxy-5-(2-hydroxyacetamido)-2-(2-(2-(prop-2-yn-1-yloxy)ethoxy)ethoxy)tetrahydro-2H-pyran-2-carboxylic acid]
[1]
  Kd: 1 to 10 µM
[2]
  Kd: < 1 µM
[3]
  Kd: 1 to 10 µM

## C#CCCOc1ccc(CO[C@]2(C(=O)O)C[C@H](O)[C@@H](NC(C)=O)[C@H]([C@H](O)[C@H](O)CNC(=O)c3cccc(Oc4ccccc4)c3)O2)cc1 [Compound 22, (2R,4S,5R,6R)-5-acetamido-2-((4-(but-3-yn-1-yloxy)benzyl)oxy)-6-((1R,2R)-1,2-dihydroxy-3-(3-phenoxybenzamido)propyl)-4-hydroxytetrahydro-2H-pyran-2-carboxylic acid]
[1]
  Kd: > 10 µM
[2]
  Kd: < 1 µM
[3]
  Kd: 1 to 10 µM

## C#CCCOc1cccc(CO[C@]2(C(=O)O)C[C@H](O)[C@@H](NC(C)=O)[C@H]([C@H](O)[C@H](O)CNC(=O)c3cccc(Oc4ccccc4)c3)O2)c1 [Compound 23, (2R,4S,5R,6R)-5-acetamido-2-((3-(but-3-yn-1-yloxy)benzyl)oxy)-6-((1R,2R)-1,2-dihydroxy-3-(3-phenoxybenzamido)propyl)-4-hydroxytetrahydro-2H-pyran-2-carboxylic acid]
[1]
  Kd: > 10 µM
[2]
  Kd: 1 to 10 µM
[3]
  Kd: 1 to 10 µM

## C#CCOC[C@H](O)[C@@H](O)CO[C@]1(C(=O)O)C[C@H](O)[C@@H](NC(=O)CO)[C@H]([C@H](O)[C@H](O)CNC(=O)Cc2ccc(Cl)cc2)O1 [Compound 24, (2R,4S,5R,6R)-6-((1R,2R)-3-(2-(4-chlorophenyl)acetamido)-1,2-dihydroxypropyl)-2-((2S,3S)-2,3-dihydroxy-4-(prop-2-yn-1-yloxy)butoxy)-4-hydroxy-5-(2-hydroxyacetamido)tetrahydro-2H-pyran-2-carboxylic acid]
[1]
  Kd: > 10 µM
[2]
  Kd: 1 to 10 µM
[3]
  Kd: 1 to 10 µM

## C#CCOCCCCCCO[C@]1(C(=O)O)C[C@H](O)[C@@H](NC(=O)CN(C)C)[C@H]([C@H](O)[C@H](O)CNC(=O)Cc2ccc(Cl)cc2)O1 [Compound 25, (2R,4S,5R,6R)-6-((1R,2R)-3-(2-(4-chlorophenyl)acetamido)-1,2-dihydroxypropyl)-5-(2-(dimethylamino)acetamido)-4-hydroxy-2-((6-(prop-2-yn-1-yloxy)hexyl)oxy)tetrahydro-2H-pyran-2-carboxylic acid]
[1]
  Kd: 1 to 10 µM
[2]
  Kd: > 10 µM
[3]
  Kd: 1 to 10 µM

## C#CCOCCCCCCO[C@]1(C(=O)O)C[C@H](O)[C@@H](NC(C)=S)[C@H]([C@H](O)[C@H](O)CNC(=O)Cc2ccc(Cl)cc2)O1 [Compound 26, (2R,4S,5R,6R)-6-((1R,2R)-3-(2-(4-chlorophenyl)acetamido)-1,2-dihydroxypropyl)-5-ethanethioamido-4-hydroxy-2-((6-(prop-2-yn-1-yloxy)hexyl)oxy)tetrahydro-2H-pyran-2-carboxylic acid]
[1]
  Kd: < 1 µM
[2]
  Kd: < 1 µM
[3]
  Kd: < 1 µM

## C#CCOCCOCCO[C@]1(C(=O)O)C[C@H](O)[C@@H](NC(=O)CO)[C@H]([C@H](O)[C@H](O)CNC(=O)c2ccccc2Cl)O1 [Compound 27, (2R,4S,5R,6R)-6-((1R,2R)-3-(2-chlorobenzamido)-1,2-dihydroxypropyl)-4-hydroxy-5-(2-hydroxyacetamido)-2-(2-(2-(prop-2-yn-1-yloxy)ethoxy)ethoxy)tetrahydro-2H-pyran-2-carboxylic acid]
[1]
  Kd: > 10 µM
[2]
  Kd: > 10 µM
[3]
  Kd: > 10 µM

## C#CCOCCOCCO[C@]1(C(=O)O)C[C@H](O)[C@@H](NC(=O)CO)[C@H]([C@H](O)[C@H](O)CNC(=O)c2ccccc2O)O1 [Compound 28, (2R,4S,5R,6R)-6-((1R,2R)-1,2-dihydroxy-3-(2-hydroxybenzamido)propyl)-4-hydroxy-5-(2-hydroxyacetamido)-2-(2-(2-(prop-2-yn-1-yloxy)ethoxy)ethoxy)tetrahydro-2H-pyran-2-carboxylic acid]
[1]
  Kd: > 10 µM
[2]
  Kd: > 10 µM
[3]
  Kd: > 10 µM
